Values belong to the compound of their own block, whether it stands above or below them.
How the values were obtained:
TLR3 [1] = test: TLR3 protein and mRNA levels in DRGs after intrathecal TLR3 antisense ODNs (Western blotting, quantitative PCR); type: in vivo; conditions: intrathecal AS-ODNs 10 μg daily for 5 days, adult WT mice; P<0.05
Method: (§1) We injected pruritic agents intradermally in the nape of the neck (50 μl) or cheek (10 μl), respectively. We purchased histamine, compound 48/80, trypsin, chloroquine, serotonin, TLR3 agonist polyribo-inosinic/cytidylic acid (PIC), and complete Freund's adjuvant (CFA) from Sigma-Aldrich, histamine H1 receptor agonist histamine-trifluoromethyl-toluidine (HTMT), capsaicin, and the H4R-selective agonist 4-methylhistamine (4-MeHA) from Tocris, and endothelin-1 (ET-1) from ALEXIS Biochemicals. […] Antisense oligodeoxynucleotides (AS-ODN; 5′-[…]-3′; SEQ ID NO:1) targeting TLR3 and mismatch ODN (MM-ODN; 5′-[…]-3′; SEQ ID NO:2) were synthesized by Invitrogen according to the published sequences (2). AS-ODN (10 μg) or MM-ODN were intrathecally injected once a day for 5 days. To target DRG and spinal cord cells, TRIF inhibitor (10 μl) were delivered intrathecally into cerebral spinal fluid via a lumbar puncture. […]
Mice were terminally anesthetized with isoflurane and transcardially perfused with PBS, and the DRGs were rapidly removed and homogenized in a lysis buffer containing a cocktail of protease inhibitors and phosphatase inhibitors. The protein concentrations were determined by BCA Protein Assay (Pierce), and 30 μg of proteins were loaded for each lane and separated on SDS-PAGE gel (4-15%, Bio-Rad). […]

TLR4 = TLR4 expression in the DRG after intrathecal AS-ODNs (specificity); type: in vivo, mice
Method: We injected pruritic agents intradermally in the nape of the neck (50 μl) or cheek (10 μl), respectively. We purchased histamine, compound 48/80, trypsin, chloroquine, serotonin, TLR3 agonist polyribo-inosinic/cytidylic acid (PIC), and complete Freund's adjuvant (CFA) from Sigma-Aldrich, histamine H1 receptor agonist histamine-trifluoromethyl-toluidine (HTMT), capsaicin, and the H4R-selective agonist 4-methylhistamine (4-MeHA) from Tocris, and endothelin-1 (ET-1) from ALEXIS Biochemicals. […] Antisense oligodeoxynucleotides (AS-ODN; 5′-[…]-3′; SEQ ID NO:1) targeting TLR3 and mismatch ODN (MM-ODN; 5′-[…]-3′; SEQ ID NO:2) were synthesized by Invitrogen according to the published sequences (2). AS-ODN (10 μg) or MM-ODN were intrathecally injected once a day for 5 days. To target DRG and spinal cord cells, TRIF inhibitor (10 μl) were delivered intrathecally into cerebral spinal fluid via a lumbar puncture. A successful spinal puncture was evidenced by a brisk tail-flick after the needle entry into subarachnoid space (3). Most reagents were dissolved in sterile saline. Capsaicin was dissolved in 10% DMSO.
We collected back hairy skin and cervical DRGs from 4 pairs of WT and Tlr3^−/− mice and isolated total RNAs using RNeasy Plus Mini kit (Qiagen, Valencia, Calif.). […]

TLR3 [2] = test: Compound 48/80- and chloroquine-induced scratching after intrathecal TLR3 AS-ODNs; type: in vivo; conditions: intrathecal AS-ODNs 10 μg daily for 5 days, adult mice; P<0.05
Method: as §1
Mice were habituated to the testing environment daily for at least two days before analysis. <ice were shaved at the back of the neck the day before injection. […] We injected 50 μl of pruritic agent intradermally in the nape of the neck and counted the number of scratches every 5 min for 30 min after the injection. A scratch was counted when a mouse lifted its hindpaw to scratch the shaved region and returned the paw to the floor or to the mouth for licking. […]

TLR3 [3] = target: T1, TLR3 (Mus musculus, UniProt Q99MB1); test: Patch-clamp recording of PIC-induced inward currents in dissociated DRG neurons; type: cell-based, mice; parameters: from tissue; host or cells: mouse DRG (dissociated small neurons), lumbar spinal cord slices, neck skin of live mice
T1 sequence (Q99MB1 26-905): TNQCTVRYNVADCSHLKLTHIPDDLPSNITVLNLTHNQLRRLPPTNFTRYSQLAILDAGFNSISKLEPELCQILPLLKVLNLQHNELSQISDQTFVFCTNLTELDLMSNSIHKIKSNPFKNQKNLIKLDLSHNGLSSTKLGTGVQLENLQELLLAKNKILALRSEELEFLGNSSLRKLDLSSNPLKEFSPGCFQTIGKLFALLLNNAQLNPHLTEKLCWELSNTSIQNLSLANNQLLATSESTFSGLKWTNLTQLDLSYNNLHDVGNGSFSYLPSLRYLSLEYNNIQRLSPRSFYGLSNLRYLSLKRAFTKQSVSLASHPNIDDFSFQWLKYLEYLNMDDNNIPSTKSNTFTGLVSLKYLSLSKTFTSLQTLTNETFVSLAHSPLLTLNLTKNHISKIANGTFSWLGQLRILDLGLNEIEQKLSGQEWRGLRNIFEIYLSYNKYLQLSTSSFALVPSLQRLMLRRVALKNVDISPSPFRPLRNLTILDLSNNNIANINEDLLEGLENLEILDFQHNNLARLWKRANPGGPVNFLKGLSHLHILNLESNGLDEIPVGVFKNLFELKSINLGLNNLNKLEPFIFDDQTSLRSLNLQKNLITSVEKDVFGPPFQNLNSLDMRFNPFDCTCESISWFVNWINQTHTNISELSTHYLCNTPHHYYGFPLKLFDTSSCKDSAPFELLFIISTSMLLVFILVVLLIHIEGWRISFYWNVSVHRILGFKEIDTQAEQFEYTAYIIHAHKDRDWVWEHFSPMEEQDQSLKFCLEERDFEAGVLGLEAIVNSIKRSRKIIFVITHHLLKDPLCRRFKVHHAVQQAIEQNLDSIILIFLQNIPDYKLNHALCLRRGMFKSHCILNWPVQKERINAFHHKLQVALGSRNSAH
Method: DRGs were removed aseptically from 4-week old mice and first incubated with collagenase (1.25 mg/ml, Roche)/dispase-II (2.4 units/ml, Roche) at 37° C. for 90 min, then digested with 0.25% trypsin (Cellgro) for 8 min at 37° C., followed by 0.25% trypsin inhibitor (Sigma). Cells were then mechanically dissociated with a flame polished Pasteur pipette in the presence of 0.05% DNAse I (Sigma). DRG cells were plated onto poly-D-lysine and laminin-coated slide chambers (for immunocytochemistry) or glass cover slips (for electrophysiology) and grown in a neurobasal defined medium (with 2% B27 supplement, Invitrogen) in the presence of 5 μM AraC, at 36.5° C., with 5% carbon dioxide.
Single-cell RT-PCR was performed as previously described (6). DRG cultures were prepared as above described and grown on glass cover slips coated with poly-D-lysine and laminin. Whole-cell patch clamp recordings were performed at room temperature to measure currents in dissociated DRG neurons with small-sizes using Axopatch-200B amplifier (Axon Instruments, Union City, USA). The patch pipettes were pulled from borosilicate capillaries (Chase Scientific Glass Inc., Rockwood, Calif., USA). When filled with the pipette solution, the resistance of the pipettes was 4˜5 MΩ. The recording chamber (volume 300 μl) was continuously superfused (3-4 ml/min). Series resistance was compensated for (>80%), and leak subtraction was performed. Data were low-pass-filtered at 2 KHz, sampled at 10 KHz. The pClamp8 (Axon Instruments) software was used during experiments and analysis. The pipette solution was composed of (in mM): 126 K-gluconate, 10 NaCl, 1 MgCl2, 10 EGTA, 2 NaATP, 0.1 MgGTP, pH 7.3 with KOH, 295-300 mOsm. Extracellular solution contained (in mM): 140 NaCl, 5 KCl, 2 CaCl2, 1 MgCl2, 10 HEPES, 10 glucose adjusted to pH 7.4 with NaOH, osmolarity 310 mOsm. Inward currents were recorded at a holding potential of −60 mV. In some experiments, following parch-clamp recording, the recorded DRG neurons were collected for single-cell RT-PCR analysis.

TLR3 [4] = target: T1, TLR3; test: Patch clamp recording of sEPSCs in lamina II neurons of spinal cord slices, PIC; type: cell-based; parameters: from tissue; host or cells: mouse DRG (dissociated small neurons), lumbar spinal cord slices, neck skin of live mice; conditions: PIC 100 ng/ml, slices of WT but not Tlr3-/- mice; P<0.05
Method: As we previously reported (18), a portion of the lumbar spinal cord (L4-L5) was removed from mice (4-6 week old) under urethane anesthesia (1.5-2.0 g/kg, i.p.) and kept in pre-oxygenated ice-cold Krebs solution. Transverse slices (600 μm) were cut on a vibrating microslicer. The slices were perfused with Kreb's solution (8-10 ml/min) that was saturated with 95% O2 and 5% CO2 at 36±1° C. for at least 1-3 hours prior to experiment. The Kreb's solution contains (in mM): NaCl 117, KCl 3.6, CaCl2 2.5, MgCl2 1.2, NaH2PO4 1.2, NaHCO3 25, and glucose 11.
The whole cell patch-clamp recordings were made from lamina IIo neurons in voltage clamp mode. Patch pipettes were fabricated from thin-walled, borosilicate, glass-capillary tubing (1.5 mm o.d., World Precision Instruments). After establishing the whole-cell configuration, neurons were held at the potential of −70 mV to record sEPSCs. The resistance of a typical patch pipette is 5-10 M. The internal solution contains (in mM): potassium gluconate 135, KCl 5, CaCl2 0.5, MgCl2 2, EGTA 5, HEPES 5, ATP-Mg 5. Membrane currents were amplified with an Axopatch 200B amplifier (Axon Instruments) in voltage-clamp mode. Signals were filtered at 2 kHz and digitized at 5 kHz. Data were stored with a personal computer using pCLAMP 10 software and analyzed with Mini Analysis (Synaptosoft Inc.).

TLR3 [5] = target: T1, TLR3; test: Scratching after intradermal PIC in naive mice and after AEW dry skin treatment; type: in vivo; parameters: from tissue; host or cells: mouse DRG (dissociated small neurons), lumbar spinal cord slices, neck skin of live mice
Method: Mice were habituated to the testing environment daily for at least two days before analysis. <ice were shaved at the back of the neck the day before injection. We put mice in small plastic chambers (14×18×12 cm) on an elevated metal mesh floor and allowed 30 min for habituation before examination. We injected 50 μl of pruritic agent intradermally in the nape of the neck and counted the number of scratches every 5 min for 30 min after the injection. A scratch was counted when a mouse lifted its hindpaw to scratch the shaved region and returned the paw to the floor or to the mouth for licking. On the basis of previous reports (4; 5) and our preliminary studies (6), we chose the following doses for pruritic agents: 25 ng for ET-1, 20 μg for 5-HT, 100 μg for HTMT, compound 48/80, and SLIGRL-NH2, 200 μg for chloroquine, 300 μg for trypsin, and 500 μg for histamine and 4-MeHA. We also injected diluted formalin (0.6%, 50 μl) in the nape to induce scratching behaviors. The experimenters were blinded to the genotypes of the animals. We also produced a dry skin model for chronic itch as described in detail previously (7), by painting neck skin with acetone and diethyether (1:1) following by water (AEW) twice a day for 7 days, and examined spontaneous itch by counting the number of scratches for 60 minutes on day 8 and 9.

DRG neurons = test: Calcium imaging from cultured DRG neurons; type: cell-based; conditions: wild-type mice DRG neurons
Method: DRGs from all spinal levels of 4-week old mice were collected in cold DH10 (90% DMEM/F-12, 10% FBS, 100 U/ml penicillin, and 100 μg/ml Streptomycin, Gibco) and treated with enzyme solution (5 mg/ml Dispase, 1 mg/ml Collagenase Type I in HPBS without Ca^++ and Mg^++, Gibco) at 37° C. Following trituration and centrifugation, cells were resuspended in DH10, plated on glass cover slips coated with poly-D-lysine (0.5 mg/ml, Stoughton, Mass.) and laminin (10 μg/ml, Invitrogen), cultured in an incubator ([…] and 5% CO2) at 37° C. and used within 24 hours. Neurons were loaded with Fura 2-acetomethoxy ester (Molecular Probes) for 30 min in the dark at room temperature. After washing, cells were imaged at 340 and 380 nm excitation to detect intracellular free calcium. To compare the response to histamine, chloroquine, and capsaicin between WT and Tlr3-deficient DRG neurons, calcium imaging assays were performed with an experimenter blind to genotype (n=3 per genotype), and the percentages of DRG neurons showing calcium responses were determined as we previously described (23).

TRPV1 [6] = target: T2, TRPV1 (Mus musculus, UniProt Q704Y3); test: Behavior after intrathecal injection of capsaicin; type: in vivo; conditions: WT mice
T2 sequence (Q704Y3 whole entry): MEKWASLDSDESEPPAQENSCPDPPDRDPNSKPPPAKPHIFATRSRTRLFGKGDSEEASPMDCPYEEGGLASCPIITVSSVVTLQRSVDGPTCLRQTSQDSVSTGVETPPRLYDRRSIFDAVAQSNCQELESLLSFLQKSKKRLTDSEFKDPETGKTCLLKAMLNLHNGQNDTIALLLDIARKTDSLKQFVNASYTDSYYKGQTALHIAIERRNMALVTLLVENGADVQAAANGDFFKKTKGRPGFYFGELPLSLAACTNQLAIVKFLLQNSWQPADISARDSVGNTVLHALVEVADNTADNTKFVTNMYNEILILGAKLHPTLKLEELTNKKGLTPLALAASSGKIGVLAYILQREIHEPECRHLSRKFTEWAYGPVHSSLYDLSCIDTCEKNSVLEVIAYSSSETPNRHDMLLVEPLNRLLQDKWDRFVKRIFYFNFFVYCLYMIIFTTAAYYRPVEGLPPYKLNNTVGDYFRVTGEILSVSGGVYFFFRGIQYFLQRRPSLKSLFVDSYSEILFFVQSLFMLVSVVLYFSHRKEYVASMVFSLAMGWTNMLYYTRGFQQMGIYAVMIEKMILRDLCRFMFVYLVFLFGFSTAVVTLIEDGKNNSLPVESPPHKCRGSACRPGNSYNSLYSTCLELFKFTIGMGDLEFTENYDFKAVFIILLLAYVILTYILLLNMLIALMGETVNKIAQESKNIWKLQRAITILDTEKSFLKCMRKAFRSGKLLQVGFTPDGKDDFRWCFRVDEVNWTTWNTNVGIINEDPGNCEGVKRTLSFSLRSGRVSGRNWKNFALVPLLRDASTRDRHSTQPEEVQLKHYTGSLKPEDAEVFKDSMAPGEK

TRPV1 [7] = target: T2, TRPV1; test: Patch clamp recording of sEPSCs in lamina II neurons of spinal cord slices, capsaicin; type: cell-based; parameters: central terminals of TRPV1-expressing nociceptors; from tissue; host or cells: mouse lumbar spinal cord slices (L4-L5); live mice (intrathecal capsaicin, resiniferatoxin pretreatment); conditions: capsaicin 1 μM, WT mice spinal cord slices

Compound: AS-ODNs: Antisense oligodeoxynucleotides 5′-AACAATTGCTTCAAGTCC-3′ (SEQ ID NO:1) targeting TLR3, synthesized by Invitrogen (DNA, backbone not given here)
TLR3 protein and mRNA levels in DRGs (TLR3 [1]): partial knockdown
TLR4 expression in the DRG (TLR4): did not affect
chloroquine-induced scratching (TLR3 [2]): significantly inhibited
compound 48/80-induced scratching (TLR3 [2]): significantly inhibited

neurons that respond to PIC (TLR3 [3]; PIC 200 ng/ml, small DRG neurons, all also express TLR3 mRNA): four neurons (out of ten)
inward currents in DRG neurons from Tlr3-/- mice (TLR3 [3]; Tlr3-/- mice): failed to induce inward currents
neurons in which an inward current was elicited (TLR3 [3]; dissociated DRG neurons, WT, PIC 100-1000 ng/ml, 5 out of 8): 60%
sEPSC frequency (TLR3 [4]): increased
spontaneous scratching after AEW treatment (TLR3 [5]; intradermal PIC, TLR3-dependent, P<0.05): able to potentiate
Compound: polyribo-inosinic/cytidylic acid [PIC]
scratching responses in naive mice (TLR3 [5]; intradermal PIC 0.1-100 μg): failed to induce obvious scratching responses

Compound: COc1cc(CNC(=O)CCCC/C=C/C(C)C)ccc1O [capsaicin]
neurons with intracellular Ca2+ increases (DRG neurons): 39%
behavior after intrathecal injection (TRPV1 [6]): induced biting, licking and scratching behavior
sEPSC frequency in lamina II neurons (TRPV1 [7]): dramatic increase

Reference: patent publication US9241991B2, “Agents, compositions, and methods for treating pruritus and related skin conditions” (The Brigham and Women's Hospital, Inc., priority 2010, dated 2016)
